In US8097625B2, “Combination of sedative and a neurotransmitter modulator, and methods for improving sleep quality and treating depression” (priority 2003, dated 2012):

System: subjects with insomnia related to major depressive disorder
Experiment: DREAMDD clinical study: fluoxetine titration (20 mg to 40 mg at Visit 7)
Assay type: in vivo, human
Conditions: for Subjects on Fluoxetine Hydrochloride 20 mg / Subjects on Fluoxetine Hydrochloride 40 mg: eszopiclone 3 mg group, ITT
Method: In addition, subjects were randomized at Visit 3 (end of baseline) to treatment with one of the following nightly (at bedtime): eszopiclone (3 mg) or matching placebo.
Sleep, Depression, and Productivity Questionnaires and Clinical Global Impression: The following questionnaires were administered as listed below. • Epworth Sleepiness Scale (ESS): ESS was completed by the subject at Visits 2-10. The ESS is a subjective assessment of the likelihood of falling asleep in various situations. • Insomnia Severity Index (ISI): ISI was completed by the subject at Visits 3, 5, 7, 9 and 10. The ISI is a subjective assessment of sleep quality, restedness/refreshness upon arising, daytime fatigue, attention/concentration and relationship and mood disturbances. • Work Limitations Questionnaire (WLQ): WLQ was completed by the subject at Visits 3, 5, 7, 9, and 10. The WLQ is a validated self-report instrument for measuring the degree to which chronic health problems interfere with ability to perform job roles, addressing the content of the job through a demand-level methodology. • Hamilton Depression-17: HAM-D-17 was administered via IVRS at screening and rated by a trained clinician at Visits 3, 7, 9, and 10. • SF-36: SF-36 was completed by the subject at Visits 3, 7, 9 and 10. The SF-36 represents multiple operational definitions of health, including function and dysfunction, distress and well-being, objective reports and subjective ratings, and both favorable and unfavorable self-evaluations of general health status. • Clinical Global Impression (CGI): CGI was completed by the investigator at Visits 3-10 The CGI is the investigator's subjective assessment of improvement in the subject's depressive symptoms. The response on the CGI at Visit 7 (Week 4 of double-blind treatment) was used by the investigator to assess the need for increasing the dose of fluoxetine to 40 mg daily (in the morning). […] Study Conduct
Visit 7 occurred 7 (±2) days after Visit 6. […] Double-blind dosing (at bedtime) continued nightly through Visit 9. • 1. Collected and reviewed the MEC. Recorded all changes in concurrent medications, including OTC and health and dietary supplements, and AEs that may have occurred between Visit 6 and Visit 7. • 2. […] Subjects completed the ESS, 1SI, WLQ, and SF-36 questionnaires prior to performing any other study related procedures. The questionnaires were reviewed for completeness by study staff. Any items left blank were returned to the subject for completion. • 4. A trained clinician administered the Hamilton-D-17 to assess depression symptoms. • 5. The investigator completed the Clinical Global Impression. […] If an increased dose of fluoxetine was required, the investigator dispensed the double-blind blister pack containing the 40 mg dose of fluoxetine. • 6. Dispensed the appropriate Visit 7 double-blind blister pack. […] Note: only one Visit 7 blister card was dispensed. • 7. Obtained vital signs (seated) and weight. • 8. Obtained blood and urine samples for clinical laboratory assessments including urinalysis, urine drug and alcohol screen, and a serum pregnancy tests on all women. • 9. Reviewed use of IVRS and the schedule for calling. Subjects call the IVRS the morning following this visit and on the morning of Visit 8 (prior to the visit). • 10. Issued MEC and instruct the subject on its use. • 11. Scheduled Visit 8 in 14 (±2) days. Visit 8 (Double-Blind Treatment Week 6)

## CN1CCN(C(=O)OC2c3nccnc3C(=O)N2c2ccc(Cl)cn2)CC1 (single isomer, unassigned; (+)) [Eszopiclone, (+) 6-(5-chloro-2-pyridinyl)-6,7-dihydro-7-oxo-5H-pyrrolo[3,4b]pyrazin-5-yl 4-methylpiperazine-1-carboxylate]
Visit 7 (Week 4)
  Subjects on Fluoxetine Hydrochloride 20 mg: 125 (55.8%) n (%)
  Subjects on Fluoxetine Hydrochloride 40 mg: 99 (44.2%) n (%)
Visit 8 (Week 6)
  Subjects on Fluoxetine Hydrochloride 20 mg: 115 (54.0%) n (%)
  Subjects on Fluoxetine Hydrochloride 40 mg: 98 (46.0%) n (%)
Visit 9 (Week 8)
  Subjects on Fluoxetine Hydrochloride 20 mg: 103 (52.8%) n (%)
  Subjects on Fluoxetine Hydrochloride 40 mg: 92 (47.2%) n (%)
co-administration with fluoxetine vs placebo
  antidepressant dose escalation to higher dose of fluoxetine: less patients in this study required antidepressant dose escalation
p<0.05 vs placebo, 3 mg nightly + fluoxetine
  Fluoxetine dose increases: 44%
